In the supplement of paper PMC11208160:

Assay: recombinant UMI read abundance after kanamycin selection (control-corrected) (log10(CPM+1)); higher = more efficient recombination; extreme values may be limits of the assay; sequences stand for … in AGTGCAGAGAAAATCGGCCAGTTTTCTCTGCCTGCAGTCCGCATGCCGTGGGACCCCTTGGGTTCTAACCTGTTGCCTAGATTTATGCAGCGGACTGCCTTTCTCCCAAAGTGATAAACCGG…AGGTTGGTTTCACT; site = the 11-nt donor
Outline: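 The measure is log10(CPM+1) for recombinant UMIs. These were PCR-amplified across the donor–target junction and sequenced after Escherichia coli carrying a donor and donor-binding-loop pair library and a target plasmid with T7-inducible IS621 bridge recombinase was plated on IPTG (0.07 mM) plus kanamycin or unselected. CPM were averaged over two replicates and scaled by control-derived factors.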
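Further: IS621 bridge recombinase in Escherichia coli cells against a fixed T5 target plasmid.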

In order of falling “recombinant UMI read abundance (log10)” value:
1. GGAGTGGCATGGACCGGTTTTCCCGGTAATCCGTATTTGCT (site GGAGTGGCTAG)  2.36
2. GGATGATCATGGACCGGTTTTCCCGGTAATCCGTATTTGCT (site GGATGATCTAG)  2.36
3. GGAGTGGCATGGACCGGTTTTCCCGGTAATCCGTATTTGGC (site GGAGTGGCTGC)  2
4. GGATTGACATGGACCGGTTTTCCCGGTAATCCGTATTTGCC (site GGATTGACTGG)  1.98
5. GGATCGGCATGGACCGGTTTTCCCGGTAATCCGTATTTGAC (site GGATCGGCTGT)  1.87
6. GGATTATCATGGACCGGTTTTCCCGGTAATCCGTATTTGAT (site GGATTATCTAT)  1.82
7. GGATCATCATGGACCGGTTTTCCCGGTAATCCGTATTTGCT (site GGATCATCTAG)  1.59
8. GGATTGACATGGACCGGTTTTCCCGGTAATCCGTATTTGCC (site GGATAGACTGG)  1.42
9. GGAGTGGCATGGACCGGTTTTCCCGGTAATCCGTATTTGGT (site GGAGTGGCTAG)  1.26
10. GGAGTGGCATGGACCGGTTTTCCCGGTAATCCGTATTTGGT (site GGAGTGTCTAC)  1.1
11. GGATTGACATGGACCGGTTTTCCCGGTAATCCGTATTTGCC (site GGATCGACTGG)  1.06
12. GGAGTGGCATGGACCGGTTTTCCCGGTAATCCGTATTTGGT (site GGAGTGACTAC)  0.976
13. GGAGTGACATGGACCGGTTTTCCCGGTAATCCGTATTTGGT (site GGAGTGTCTAC)  0.92
14. GGATCATCATGGACCGGTTTTCCCGGTAATCCGTATTTGCT (site TGATCATCTAG)  0.91
15. GGAGTGGCATGGACCGGTTTTCCCGGTAATCCGTATTTGGT (site AGAGTGGCTAC)  0.902
16. GGAGTGGCATGGACCGGTTTTCCCGGTAATCCGTATTTGCT (site GGAGTGGCTAT)  0.809
17. GGAGTGGCATGGACCGGTTTTCCCGGTAATCCGTATTTGGT (site GGAATGGCTAC)  0.749
18. GGATCGACATGGACCGGTTTTCCCGGTAATCCGTATTTGTT (site GGATCGACTAA)  0.7
19. GGCAATCCATGGACCGGTTTTCCCGGTAATCCGTATTTGAC (site GGCAATCCTGT)  0.665
20. GGAGTGGCATGGACCGGTTTTCCCGGTAATCCGTATTTGGT (site GGAGTAGCTAC)  0.606
21. GGAGTGGCATGGACCGGTTTTCCCGGTAATCCGTATTTGGT (site GGAGTGGCTAT)  0.592
22. GGAGTGGCATGGACCGGTTTTCCCGGTAATCCGTATTTGGT (site GGAGTGGCTAC)  0.575
23. GGAGTGGCATGGACCGGTTTTCCCGGTAATCCGTATTTGGT (site GGTGTGGCTAC)  0.564
24. GGAGTGGCATGGACCGGTTTTCCCGGTAATCCGTATTTGGT (site GGAGTGGCTGC)  0.537
25. GGAGTGGCATGGACCGGTTTTCCCGGTAATCCGTATTTGGT (site GGAGAGGCTAC)  0.524
26. GGATCATCATGGACCGGTTTTCCCGGTAATCCGTATTTGCT (site CGATCATCTAG)  0.511
27. GGAGTGGCATGGACCGGTTTTCCCGGTAATCCGTATTTGGC (site GGAGTGGCTAC)  0.502
28. GGAGTGGCATGGACCGGTTTTCCCGGTAATCCGTATTTGGT (site GCAGTGGCTAC)  0.497
29. GGAGTGGCATGGACCGGTTTTCCCGGTAATCCGTATTTGCT (site GGAGTGGCTAA)  0.463
30. GGAGTGGCATGGACCGGTTTTCCCGGTAATCCGTATTTGGT (site GGAGGGGCTAC)  0.461
31. GGAGTGGCATGGACCGGTTTTCCCGGTAATCCGTATTTGGT (site GGATTGGCTAC)  0.458
32. GGAGTGGCATGGACCGGTTTTCCCGGTAATCCGTATTTGGT (site CGAGTGGCTAC)  0.437
33. GGAGTGGCATGGACCGGTTTTCCCGGTAATCCGTATTTGGT (site GGAGTGCCTAC)  0.377
34. GGAGTGGCATGGACCGGTTTTCCCGGTAATCCGTATTTGGC (site GGAGTGGCTTC)  0.328
35. GGAGTGGCATGGACCGGTTTTCCCGGTAATCCGTATTTGGT (site TGAGTGGCTAC)  0.32
36. GGAGTGGCATGGACCGGTTTTCCCGGTAATCCGTATTTGGT (site GTAGTGGCTAC)  0.294
37. GGCAATCCATGGACCGGTTTTCCCGGTAATCCGTATTTGTA (site GGCAATCCTTA)  0.264
38. GGAGTGACATGGACCGGTTTTCCCGGTAATCCGTATTTGGT (site GGAGTGGCTAC)  0.259
39. GGAGTGGCATGGACCGGTTTTCCCGGTAATCCGTATTTGCT (site GGAGTGGCTAC)  0.163
40. GGAGTGGCATGGACCGGTTTTCCCGGTAATCCGTATTTGGT (site GAAGTGGCTAC)  0.126
41. GGAGTGGCATGGACCGGTTTTCCCGGTAATCCGTATTTGGC (site GGAGTGGCTCC)  0.101
42. GGAGTGGCATGGACCGGTTTTCCCGGTAATCCGTATTTGGT (site GGAGTGGCTAA)  0.0703
43. GGAGTGGCATGGACCGGTTTTCCCGGTAATCCGTATTTGGT (site GGACTGGCTAC)  0.0487
44. GGAGTGGCATGGACCGGTTTTCCCGGTAATCCGTATTTGGT (site GGGGTGGCTAC)  0.0193
45. GGATCGACATGGACCGGTTTTCCCGGTAATCCGTATTTGTT (site AGATCGACTAA)  0.0171
46. GGAGTGGCATGGACCGGTTTTCCCGGTAATCCGTATTTGGT (site GGAGTCGCTAC)  0.014
47. GGCAACCCATGGACCGGTTTTCCCGGTAATCCGTATTTGGA (site GGCAACCCTTC)  0.0138
48. GGAGTGGCATGGACCGGTTTTCCCGGTAATCCGTATTTGGT (site GGAGTGGCTCC)  0.0114
49. GGAGTGGCATGGACCGGTTTTCCCGGTAATCCGTATTTGGT (site GGAGTGGCTTC)  0.0104
50. GGATCGACATGGACCGGTTTTCCCGGTAATCCGTATTTGTT (site TGATCGACTAA)  0.00972
51. GGCAATCCATGGACCGGTTTTCCCGGTAATCCGTATTTGAC (site GGCAATCCTAT)  0.00921
52. GGATCGACATGGACCGGTTTTCCCGGTAATCCGTATTTGTT (site CGATCGACTAA)  0.00751
53. GGATCCCCATGGACCGGTTTTCCCGGTAATCCGTATTTGCT (site GGATCCCCTAG)  0.0066
54. GGCAAACCATGGACCGGTTTTCCCGGTAATCCGTATTTGAA (site GGCAAGCCTTT)  0.00636
55. GGAGTGACATGGACCGGTTTTCCCGGTAATCCGTATTTGGT (site GGAGTGCCTAC)  0.00536
56. GGAGTGGCATGGACCGGTTTTCCCGGTAATCCGTATTTGGT (site GGCGTGGCTAC)  0.0051
57. GGAGTGGCATGGACCGGTTTTCCCGGTAATCCGTATTTGGT (site GGAGCGGCTAC)  0.00445
58. GGATCATCATGGACCGGTTTTCCCGGTAATCCGTATTTGAT (site GGATCATCTAT)  0.00412
59. GGCAATCCATGGACCGGTTTTCCCGGTAATCCGTATTTGAC (site GGCAATCCTCT)  0.00258
60. GGAGTGGCATGGACCGGTTTTCCCGGTAATCCGTATTTGGT (site GGAGTTGCTAC)  0
61. GGATCATCATGGACCGGTTTTCCCGGTAATCCGTATTTGAT (site CGATCATCTAG)  0
62. GGATCATCATGGACCGGTTTTCCCGGTAATCCGTATTTGCT (site AGATCATCTAG)  0
63. GGATGATCATGGACCGGTTTTCCCGGTAATCCGTATTTGCT (site CGATCATCTAG)  0
64. GGATTGACATGGACCGGTTTTCCCGGTAATCCGTATTTGCC (site GGATGGACTGG)  0
65. GGCAAACCATGGACCGGTTTTCCCGGTAATCCGTATTTGAA (site GGCAAACCTTT)  0
66. GGCAAACCATGGACCGGTTTTCCCGGTAATCCGTATTTGAA (site GGCAACCCTTT)  0
67. GGCAAACCATGGACCGGTTTTCCCGGTAATCCGTATTTGAA (site GGCAATCCTTT)  0
68. GGCAATCCATGGACCGGTTTTCCCGGTAATCCGTATTTGAC (site GGCAATCCTTT)  0
